Publication PMC11274128, “Modification and Synergistic Studies of a Novel Frog Antimicrobial Peptide against Pseudomonas aeruginosa Biofilms” (Antibiotics, 2024)
In brackets after ≈: the same amount, converted by molar mass. Like-named read-outs stand apart in the source and are kept apart here. Bridge positions count the residues as written; N and C are the ends. Ends that are not written are not given here. Peptide text beside a SMILES is read from it.

Legend:
E. coli (ATCC 8739) = assay: microbe, parasite or virus in culture; type: cell-based, Escherichia coli; conditions: planktonic E. coli ATCC 8739; for MIC: 37 °C, nine repeats of three independent experiments; for MBC: lowest concentration killing 99.9% of inoculum
Excerpt: (§1) The minimum inhibitory concentration (MIC) is the minimum concentration of an antimicrobial agent that prevents the visible growth of a bacterium or bacteria. The MIC is an important piece of data for research on new antimicrobial agents and helps in the effective selection of antibiotics to improve the success of treatment. The minimum bactericidal concentration (MBC) is defined as the lowest antibiotic concentration that kills 99.9% of the inoculum. This study mainly contained eight different microorganisms, which were Staphylococcus aureus (ATCC 6538), methicillin-resistant Staphylococcus aureus (NCTC 12493), Enterococcus faecalis (NCTC 12697), Escherichia coli (ATCC 8739), Klebsiella pneumoniae (ATCC 43816), Pseudomonas aeruginosa (ATCC CRM 9027), Acinetobacter baumannii (BAA 747), and Candida albicans (ATCC 10231). The bacteria were incubated in the compatible medium at 37 °C overnight.

S. aureus (ATCC 6538) = assay: microbe, parasite or virus in culture; type: cell-based, Staphylococcus aureus; conditions: planktonic S. aureus ATCC 6538; for MIC: 37 °C, nine repeats of three independent experiments; for MBC: lowest concentration killing 99.9% of inoculum
Excerpt: as §1

Yeast = assay: Geometric mean of MICs and TI value; type: cell-based, Candida albicans; conditions: C. albicans ATCC 10231
Procedure: (§2) The therapeutic potential of antimicrobial agents was valued based on their selectivity toward bacteria in reference to erythrocytes. The TI value was calculated from the results of antibacterial and haemolysis experiments of peptides using the following formula:TI value = HC10 / GMMICs.
(§3) GM was the geometric mean of MICs against all tested bacteria.

[1] = test system: P. aeruginosa (ATCC CRM 9027); assay: microbe, parasite or virus in culture; type: cell-based, Pseudomonas aeruginosa; conditions: planktonic P. aeruginosa ATCC CRM 9027; for MIC: 37 °C, nine repeats of three independent experiments; for MBC: lowest concentration killing 99.9% of inoculum
Excerpt: as §1

A. baumannii (BAA 747) = assay: microbe, parasite or virus in culture; type: cell-based, Acinetobacter baumannii; conditions: planktonic A. baumannii BAA 747; for MIC: 37 °C, nine repeats of three independent experiments; for MBC: lowest concentration killing 99.9% of inoculum
Excerpt: as §1

horse red blood cells = horse red blood cells in PBS, 37 °C, 2 h, absorbance 570 nm; positive control 0.1% Triton
Procedure: The pure peptide was dissolved in PBS and then two-fold diluted to obtain a series of concentrations: 512, 256, 128, 64, 32, 16, 8, 4, and 2 μM. A positive control (0.1% Triton) and blank control (PBS) were used. Two millilitres of fresh horse red blood cells were washed in PBS until the supernatant became colourless and clear, and the mixture was then thoroughly mixed. Each mixture contained 100 μL of peptide solution or controls and 100 μL of horse red blood cells, which were then incubated at 37 °C for 2 h and centrifuged at 930× g for 10 min. Subsequently, 100 μL of supernatant from each tube was transferred into a 96-well plate, and the plate reader measured the absorbance at a wavelength of 570 nm. The haemolysis rate was calculated using the following formula:Percentage Haemolysis= (ASample − ABlank)/(APositive − ABlank) × 100%

G+ Bacteria = assay: Geometric mean of MICs and TI value; type: cell-based; conditions: geometric mean of MICs against tested Gram-positive bacteria
Procedure: as §2, §3

G− Bacteria = assay: Geometric mean of MICs and TI value; type: cell-based; conditions: geometric mean of MICs against tested Gram-negative bacteria
Procedure: as §2, §3

C. albicans (ATCC 10231) = type: cell-based, Candida albicans; conditions: yeast C. albicans ATCC 10231; for MIC: 37 °C, nine repeats of three independent experiments; for MBC: lowest concentration killing 99.9% of inoculum
Excerpt: as §1

MRSA (NCTC 12493) = assay: microbe, parasite or virus in culture; type: cell-based, methicillin-resistant Staphylococcus aureus; conditions: planktonic MRSA NCTC 12493; for MIC: 37 °C, nine repeats of three independent experiments; for MBC: lowest concentration killing 99.9% of inoculum
Excerpt: as §1

[2] = test system: K. pneumoniae (ATCC 43816); assay: microbe, parasite or virus in culture; type: cell-based, Klebsiella pneumoniae; conditions: planktonic K. pneumoniae ATCC 43816; for MIC: 37 °C, nine repeats of three independent experiments; for MBC: lowest concentration killing 99.9% of inoculum
Excerpt: as §1

E. faecalis (NCTC 12697) = assay: microbe, parasite or virus in culture; type: cell-based, Enterococcus faecalis; conditions: planktonic E. faecalis NCTC 12697; for MIC: 37 °C, nine repeats of three independent experiments; for MBC: lowest concentration killing 99.9% of inoculum
Excerpt: as §1

| Compound | MIC (S. aureus (ATCC 6538)) [µM] | MBC (S. aureus (ATCC 6538)) [µM] | GM (geometric mean of MICs), Yeast (Yeast) [µM] | MIC [1] [µM] | MBC [1] [µM] | HC10 (horse red blood cells) [µM] | GM (geometric mean of MICs), G+ Bacteria (G+ Bacteria) [µM] | GM (geometric mean of MICs), G− Bacteria (G− Bacteria) [µM] | MIC (C. albicans (ATCC 10231)) [µM] | MBC (C. albicans (ATCC 10231)) [µM] | MIC ([2]; read-out: MIC) [µM] | MBC ([2]; read-out: MBC) [µM] | MIC (E. coli (ATCC 8739); read-out: MIC) [µM] | MBC (E. coli (ATCC 8739); read-out: MBC) [µM] | MIC (A. baumannii (BAA 747)) [µM] | MBC (A. baumannii (BAA 747)) [µM] | MIC (E. faecalis (NCTC 12697)) [µM] | MBC (E. faecalis (NCTC 12697)) [µM] | MIC (MRSA (NCTC 12493)) [µM] | MBC (MRSA (NCTC 12493)) [µM] | other results |
| --- | --- | --- | --- | --- | --- | --- | --- | --- | --- | --- | --- | --- | --- | --- | --- | --- | --- | --- | --- | --- | --- |
| CC[C@H](C)[C@H](NC(=O)[C@H](CCCCN)NC(=O)[C@H](CCCCN)NC(=O)CNC(=O)[C@H](C)NC(=O)[C@H](C)NC(=O)[C@H](CC(C)C)NC(=O)[C@@H](NC(=O)[C@H](C)NC(=O)[C@H](CCCNC(=N)N)NC(=O)[C@H](CC(C)C)NC(=O)[C@H](CC(C)C)NC(=O)CN)C(C)C)C(=O)N[C@H](C(=O)N[C@H]1CSSC[C@@H](C(=O)O)NC(=O)[C@H](CCCNC(=N)N)NC(=O)CNC(=O)[C@H](CO)NC(=O)[C@H](CC(C)C)NC(=O)CNC1=O)C(C)C [Peptide 2085-R] (H-GLLRAVLAAGKKIVCGLSGRC-OH; disulfide 15-21) | 16 (≈ 33.3 µg/mL) | 16 (≈ 33.3 µg/mL) | 32.00 | 64 (≈ 133 µg/mL) | 64 (≈ 133 µg/mL) | >256 | 25.40 | 32.00 | 32 (≈ 66.7 µg/mL) | 32 (≈ 66.7 µg/mL) | 32 (≈ 66.7 µg/mL) | 64 (≈ 133 µg/mL) | – | – | – | – | – | – | – | – | MIC (E. coli (ATCC 8739)): 16 µM (≈ 33.3 µg/mL); MBC (E. coli (ATCC 8739)): 16 µM (≈ 33.3 µg/mL); MIC (A. baumannii (BAA 747); read-out: MIC): 32 µM (≈ 66.7 µg/mL); MBC (A. baumannii (BAA 747); read-out: MBC): 64 µM (≈ 133 µg/mL); MIC (MRSA (NCTC 12493); read-out: MIC): 16 µM (≈ 33.3 µg/mL); MBC (MRSA (NCTC 12493); read-out: MBC): 32 µM (≈ 66.7 µg/mL) |
| GLLRGVLGAGKKIVCGLSGRC (disulfide 15-21 (inferred)) [Peptide 2057-C, N-terminus modified analogue of Nigrosin-6VL] | 128 | > 128 | 256.00 | – | – | >256 | 128.00 | 64.00 | > 128 | > 128 | 64 | 128 | 16 | 32 | > 128 | > 128 | > 128 | > 128 | – | – | MIC ([1]; read-out: MIC): 64 µM; MBC ([1]; read-out: MBC): 128 µM; MIC (MRSA (NCTC 12493); read-out: MIC): 64 µM; MBC (MRSA (NCTC 12493); read-out: MBC): 128 µM |
| GLLSGVLGAGKKIVAGLSGRA [Peptide 1924-A] | 128 | > 128 | 64.00 | 128 | > 128 | >256 | 203.19 | 107.63 | 64 | 128 | 64 | 128 | 64 | 128 | > 128 | > 128 | > 128 | > 128 | > 128 | > 128 | – |
| GLLSGVLGAGKKIVCGLSGR- [Peptide 1885-R, Rana Box modified analogue of Nigrosin-6VL] | 128 | > 128 | 256.00 | – | – | >256 | 128.00 | 45.25 | > 128 | > 128 | 32 | 64 | 32 | 64 | 128 | > 128 | > 128 | > 128 | 64 | 64 | MIC ([1]; read-out: MIC): 32 µM; MBC ([1]; read-out: MBC): 64 µM |
| GLLSGVLGAGKKIVGLSGRC [Peptide 1885-C] | > 128 | > 128 | 256.00 | – | – | >256 | 256.00 | 64.00 | > 128 | > 128 | 64 | 128 | 16 | 32 | > 128 | > 128 | > 128 | > 128 | > 128 | > 128 | MIC ([1]; read-out: MIC): 64 µM; MBC ([1]; read-out: MBC): 128 µM |
| H-GLLSGVLGAGKKIVGLSGR-OH [Peptide 1782-R] | > 128 | > 128 | 256.00 | > 128 | > 128 | >256 | 256.00 | 215.27 | > 128 | > 128 | – | – | – | – | > 128 | > 128 | > 128 | > 128 | > 128 | > 128 | MIC (E. coli (ATCC 8739)): 128 µM; MBC (E. coli (ATCC 8739)): > 128 µM; MIC [2]: > 128 µM; MBC [2]: > 128 µM |
